Results: ChEMBL document CHEMBL4321873, “Optimization of Orally Bioavailable PI3Kδ Inhibitors and Identification of Vps34 as a Key Selectivity Target” (J Med Chem, 2020)
In brackets after ≈: the same amount, converted by molar mass.

What was measured:
[1] = Intrinsic clearance in rat hepatocytes at 0.5 uM measured after 10 mins by LC-MS/MS analysis; assay type: ADME, cell-based, Hepatocyte
[2] = Intrinsic clearance in human hepatocytes at 0.5 uM measured after 10 mins by LC-MS/MS analysis; assay type: ADME, cell-based, Hepatocyte
[3] = Clearance in Wistar Han rat at 1 mg/kg, iv by LC-MS/MS analysis relative to hepatic blood flow; assay type: ADME, organism-based; settings: in vivo
[4] = Permeability of the compound in pH 7.05 phosphate buffer measured after 3 hrs by artificial membrane permeability assay based LC-MS analysis; assay type: ADME; settings: PAMPA, read-out: permeability
[5] = Intrinsic clearance in minipig hepatocytes at 0.5 uM measured after 10 mins by LC-MS/MS analysis; assay type: ADME, cell-based, Sus scrofa domesticus, Hepatocyte; settings: pig
[6] = AUC (infinity) in Wistar Han rat at 1 mg/kg, po by LC-MS/MS analysis; assay type: ADME, organism-based; parameters: dose 1 mg/kg, time infinity, route oral; settings: in vivo
[7] = Half life in Wistar Han rat at 1 mg/kg, iv by LC-MS/MS analysis; assay type: ADME, organism-based; settings: in vivo
[8] = Clearance in Wistar Han rat at 1 mg/kg, iv by LC-MS/MS analysis; assay type: ADME, organism-based; settings: in vivo
[9] = Oral bioavailability in Wistar Han rat at 1 mg/kg by LC-MS/MS analysis; assay type: ADME, organism-based; settings: in vivo
[10] = Volume of distribution at steady state in Wistar Han rat at 1 mg/kg, iv or 1 mg/kg, po by LC-MS/MS analysis; assay type: ADME, organism-based; settings: in vivo, read-out: Vdss
[11] = Kinetic solubility of the compound in pH 7.4 phosphate buffered saline measured after 1 hr by CLND method; assay type: physicochemical; settings: read-out: Kinetic_solubility
[12] = AUC (0 to 24 hrs) in Wistar Han rat at 10 mg/kg, po administered twice daily for 7 days by LC-MS/MS analysis; assay type: ADME, organism-based; parameters: dose 10 mg/kg, time < 24 hr, route oral; settings: in vivo
[13] = AUC (0 to 24 hrs) in Wistar Han rat at 30 mg/kg, po administered twice daily for 7 days by LC-MS/MS analysis; assay type: ADME, organism-based; parameters: dose 30 mg/kg, time < 24 hr, route oral; settings: in vivo
[14] = AUC (0 to 24 hrs) in Wistar Han rat at 100 mg/kg, po administered twice daily for 7 days by LC-MS/MS analysis; assay type: ADME, organism-based; parameters: dose 100 mg/kg, time < 24 hr, route oral; settings: in vivo
[15] = Time at which plasma concentration stays at 10 times Kd(app) for binding affinity to PI3Kdelta in human HL60 cell extract in Wistar Han rat at 10 to 100 mg/kg, po administered twice daily for 7 days; assay type: ADME, organism-based; settings: in vivo, 168 h
[16] = Time at which plasma concentration stays at 10 times Kd(app) for binding affinity to PI3Kdelta in human HL60 cell extract in Wistar Han rat at 30 to 300 mg/kg, po administered once daily for 7 days; assay type: ADME, organism-based; settings: in vivo, 168 h
[17] = AUC (0 to 24 hrs) in Wistar Han rat at 30 mg/kg, po administered once daily for 7 days by LC-MS/MS analysis; assay type: ADME, organism-based; parameters: dose 30 mg/kg, time < 24 hr, route oral; settings: in vivo
[18] = AUC (0 to 24 hrs) in Wistar Han rat at 100 mg/kg, po administered once daily for 7 days by LC-MS/MS analysis; assay type: ADME, organism-based; parameters: time < 24 hr, dose 100 mg/kg, route oral; settings: in vivo
[19] = AUC (0 to 4 hrs) in Wistar Han rat at 300 mg/kg, po administered once daily for 7 days by LC-MS/MS analysis; assay type: ADME, organism-based; parameters: dose 300 mg/kg, time < 4 hr, route oral; settings: in vivo
[20] = Time at which plasma concentration stays at 10 times Kd(app) for binding affinity to VPS34 in human HL60 cell extract in Wistar Han rat at 100 mg/kg, po administered once daily for 7 days; assay type: ADME, organism-based; settings: in vivo, 168 h

With `COCCS(=O)(=O)Nc1cc(-c2cc3c(c(OCCN4CCC(C(C)(C)O)CC4)c2)COC3)cnc1OC` the “Intrinsic clearance (CLint)” value [1] was 1.6 mL/min/g, the intrinsic clearance [2] was less than 0.9 mL/min/g and the CL [3] was 28%. For the same compound, the Papp at 3 h [4] was less than 0.3 ×10⁻⁶ cm/s.
With `COCCS(=O)(=O)Nc1cc(-c2cc3c(c(OC[C@H]4CN(C5COC5)CCO4)c2)COC3)cnc1OC` the “Intrinsic clearance (CLint)” value [1] was 1.2 mL/min/g, the CLH [5] was 0.9 mL/min/g and the intrinsic clearance [2] was less than 0.3 mL/min/g. It also gave an AUC(0-inf) [6] of 829 ng·h/mL, a half-life [7] of 3.2 h and a clearance [8] of 22 mL/min/kg. It also gave a bioavailability [9] of 84%, a Vd [10] of 2 L/kg and a solubility kinetic at 1 h [11] of no less than 270 µg/mL. It also gave a CL [3] of 28%, an AUC at 24 h [12] of 12600 ng·h/mL and an AUC at 24 h [13] of 37400 ng·h/mL. It also gave an AUC at 24 h [14] of 114000 ng·h/mL, a Time [15] of 24 h and a Time [16] of 24 h.
With `COc1ncc(-c2cc3c(c(NC(=O)CN4CCOCC4)c2)COC3)cc1NS(C)(=O)=O` the AUC(0-inf) [6] was 673 ng·h/mL.
With `COc1ncc(-c2cc3c(c(OCCN4CCC(C(C)(C)O)CC4)c2)COC3)cc1NS(C)(=O)=O` the “Intrinsic clearance (CLint)” value [1] was 2.5 mL/min/g, the CLH [5] was less than 0.9 mL/min/g and the intrinsic clearance [2] was less than 0.9 mL/min/g. It also gave an AUC(0-inf) [6] of 148 ng·h/mL, a half-life [7] of 2.1 h and a clearance [8] of 48 mL/min/kg. The bioavailability [9] was 32%, the Vd [10] was 5.9 L/kg and the solubility kinetic at 1 h [11] was 197 µg/mL (≈ 390 µM). It also gave a CL [3] of 62%, an AUC at 24 h [17] of 5000 ng·h/mL and an AUC at 24 h [18] of 26300 ng·h/mL. The AUC at 4 h [19] was 27500 ng·h/mL, the Time [15] was 24 h and the Time [16] was 24 h. The Time [20] was 24 h.
For `COCCS(=O)(=O)Nc1cc(-c2cc3c(c(OCCN4CCC(C(C)(C)O)CC4)c2)CCOC3)cnc1OC`, the “Intrinsic clearance (CLint)” value [1] was less than 0.9 mL/min/g, the CLH [5] was less than 0.9 mL/min/g and the intrinsic clearance [2] was less than 0.9 mL/min/g. For the same compound, the half-life [7] was 2.7 h, the clearance [8] was 41 mL/min/kg and the Vd [10] was 6.9 L/kg. For the same compound, the solubility kinetic at 1 h [11] was no less than 184 µg/mL.
`COc1ncc(-c2cc3c(c(OCCN4CCC(C(C)(C)O)CC4)c2)CCOC3)cc1NS(C)(=O)=O` showed a clearance [8] of 109 mL/min/kg.
In the case of `COc1ncc(-c2cc(OCCN3CCC(C(C)(C)O)CC3)c3c(c2)[C@@H](C)OC3)cc1NS(C)(=O)=O`, the “Intrinsic clearance (CLint)” value [1] is reported as 9.7 mL/min/g and the intrinsic clearance [2] is reported as less than 0.9 mL/min/g.
In the case of `COc1ncc(-c2cc(OCCN3CCC(C(C)(C)O)CC3)c3c(c2F)COC3)cc1NS(C)(=O)=O`, the “Intrinsic clearance (CLint)” value [1] is reported as 4.5 mL/min/g and the intrinsic clearance [2] is reported as less than 0.9 mL/min/g.
For `COc1ncc(-c2cc3c(c(OCCN4CCC(C(C)(C)O)CC4)c2)COC3)cc1NS(=O)(=O)CC#N`, the Papp at 3 h [4] was less than 0.3 ×10⁻⁶ cm/s.
